Here are results for eight compounds from publication PMC6151865, “Targeting protein biotinylation enhances tuberculosis chemotherapy” (Science Translational Medicine, 2018).

Like-named read-outs stand apart in the source and are kept apart here.

Data set [1] has as its target T1, Rv3406 (Mycobacterium tuberculosis, UniProt P9WKZ1). The conditions noted are these: substrate; ref Neres et al., ACS Chem Biol 10, 705-714 (2015); cited from earlier work.
The test system of data set [2] is non-replicating Mtb H37Rv strain. The experiment in a line: Viability of non-replicating Mtb (PBS starvation). It is filed as cell-based, Mycobacterium tuberculosis. The following applies: starvation in PBS.
For data set [3] the following is noted: in vivo.
Data set [4] has as its system Mtb. It is filed as cell-based, Mycobacterium tuberculosis.
For the next data set, the system named is Mtb in mouse macrophages. Kind of data set: Intracellular Mtb in mouse bone marrow-derived macrophages. The following applies: treated 24 hours after infection.
Data set [5] deals with Mtb. The experiment in a line: MIC measurements (carbon sources, biotin in medium).
Data set [6] relates to Mtb. The experiment in a line: Acid-fast (Kinyoun) staining after Bio-AMS exposure. Format: cell-based, Mycobacterium tuberculosis. The following applies: lethal dose (5 µM); after 10 days of exposure.
Data set [7] concerns the target T1, Rv3406.
Data set [8] is described as follows: in vivo. The following applies: CD-1, mouse.
The test system of another data set is Mtb H37Rv strain. The experiment in a line: Combination of Bio-AMS with rifampicin, ethambutol, isoniazid in liquid culture. It is filed as cell-based, Mycobacterium tuberculosis. The conditions noted are these: for bactericidal activity when used individually: Bio-AMS at 1 µM, rifampicin at 6.5 nM, ethambutol at 12.5 µM; for change of MIC by sublethal dose of Bio-AMS: Bio-AMS 1 µM, 3 days pre-exposure; for Mtb inoculum killed: after 20 days of treatment.

Data set [9] in a line: Tolerability at ascending intraperitoneal doses. Format: in vivo, CD-1 mice. How it is done: Groups of three mice received Bio-AMS (50, 100, 250, or 500 mg/kg) via intraperitoneal injection at 4 ml/kg. They were observed continuously for the first half-hour after injection and then at 24 hours after injection.
Table S5. Tolerability of Bio-AMS at ascending intraperitoneal doses in CD-1 mice.a Bio-AMS 50mg/kg (IP) 4 ml/kg
Mouse # Weight ½ h Observation 24h Observation
Bio-AMS 100mg/kg (IP) 4 ml/kg
Bio-AMS 250mg/kg (IP) 4 ml/kg
Bio-AMS 500mg/kg (IP) 4 ml/kg […]
would be tolerated in mice (with plasma concentrations above the MIC for a minimum of 40-50% of the dosing interval). For this, we conducted a dose escalation tolerab ility study in which groups of three mice received ascending IP doses of Bio-AMS. Only the lowest dose of 50 mg/kg was tolerated up to 24 h post injection. Animal weights remained unchanged during the 24 h period post-injection at all doses. Assuming linear pharmacokinetics, a 50 mg/kg dose would deliver plasma concentrations above the MIC for a very small fraction of the dosing

Data set [10] is described as follows: in vivo. The conditions noted are these: female, NZW, rabbit, lung lesions and plasma, oral.
Data set [11] is described as follows: Rifampicin-doxycycline interaction study. The following applies: plasma; for AUC(0-t): female, CD-1, mouse, in vivo, po, Doxycycline AUC[0-8] Mean (SD); for Doxycycline Cmin Mean (SD): daytime.
The conditions of data set [12]: 7 days.
The next data set has as its system Mtb ∆bioA. Format: cell-based, Mycobacterium tuberculosis.
Data set [13] can be described thus: in vivo. The following applies: female, CD-1, mouse, po, 10 mg/kg.
The test system of a further data set is bioA TetON-1 Mtb strain. Set-up: species or system C57BL/6 mice. The conditions noted are these: in vivo.
Data set [14] has as its system [H][C@]12CS[C@@H](CCCCC(=O)NS(=O)(=O)NC[C@H]3O[C@@H](n4cnc5c(N)ncnc54)[C@H](O)[C@@H]3O)[C@@]1([H])NC(=O)N2. Kind of data set: purified protein, by the assay type. The following applies: pH 7.5; 25.0 °C.
Setting [15] is: different carbon sources at 0.1%.
The mark [16] stands for this setting: rifampicin single dose plus doxycycline in diet (2000 ppm, 7 days).
Setting [17] is: rifampicin steady state + doxycycline in diet.

A word on the Km: it is the concentration of substrate that gives half-maximal velocity. The term kcat denotes the number of substrate molecules converted per active site and unit of time at saturation. Consider `CCCCC(CC)COS(=O)(=O)[O-].[Na+]` (centres unmarked) [2-EHS, 2-ethylhexyl sulfate], for which, at Rv3406 [1], the Km is 8.8 ± 0.5 µM and the kcat is 19.2 ± 0.9 min⁻¹.
As a reminder, the bioavailability is the share of a dose that reaches the circulation, judged against a reference dose that is usually intravenous. Low readings indicate little systemic uptake, high ones much systemic uptake. As a reminder, the AUC(0-t) is exposure summed from dosing to a finite time, without extrapolation to infinity. Usually Cmax stands for the highest concentration seen after dosing. Take `Nc1ncnc2c1ncn2[C@@H]1O[C@H](CNS(=O)(=O)NC(=O)CCCC[C@@H]2SC[C@@H]3NC(=O)N[C@@H]32)[C@@H](O)[C@H]1O` [Bio-AMS, 5′-[N-(d-biotinoyl)sulfamoyl]amino-5′-deoxyadenosine]: in data set [2], the “Mtb viability, non-replicating” value is reported as “no reduction in Mtb viability”. Moreover, the “F, bioavailability relative to IV exposure” value in data set [3] (CD-1, mouse, 25 mg/kg) is recorded as 241%. In addition, the elimination in mice result in data set [3] (mouse) is “rapidly eliminated”. The exposure entry in data set [3] (mouse, ip) was “good exposure”; in data set [3] (mouse, po), “low”. In the data set on Mtb [4], the bactericidal concentration amounted to 5 µM. In the data set with Mtb [4], the killing kinetics result was “kinetics similar to that of isoniazid”. Moreover, in the data set with Mtb [4], the “viability of the culture” value is recorded as less than 25 CFU/ml. For the same compound, in the data set with Mtb H37Ra, the “growth of Mtb H37Ra (CFU)” value is reported as “prevented growth”. In the data set on Mtb in mouse macrophages, the “growth of Mtb in infected mouse macrophages” value is given as “inhibited growth of Mtb in a concentration-dependent manner”. Further, in the data set on HepG2 cells, the mitochondrial toxicity result is given as “no signs of mitochondrial toxicity”. Further, in the data set with HepG2 cells (human), the “shift in IC50, glucose medium compared to galactose medium” value was determined as 1.05 fold. Further, the “impact of primary carbon source on MIC” value with Mtb [5] (setting [15]) is on record as “little impact”. Further, the “impact of primary carbon source on minimal bactericidal concentration” value in the data set with Mtb [5] (setting [15]) is listed as “little impact”. For the same compound, the “increase of MIC by addition of biotin to the growth medium” value with Mtb [5] (with versus without biotin) is “fourfold”. In the data set on Mtb [6], the acid-fastness result is “most bacteria no longer stained as acid-fast”. Besides, the “KM value relative to 2-EHS (higher)” value on Rv3406 [7] amounted to 48 fold. The “kcat value relative to 2-EHS (lower)” value on Rv3406 [7] is on record as approximately 1300 fold. In “in vivo [8]” (25 mg/kg), this compound showed a bioavailability of 2%. Further, the AUC(0-t) in “in vivo [8]” (ip, 25 mg/kg) came out at 31.8 µM·h; in “in vivo [8]” (iv, 5 mg/kg), 2.5 µM·h; in “in vivo [8]” (po, 25 mg/kg) it was 0.26 µM·h. The highest concentration (Cmax) was found to be 61.1 µM in “in vivo [8]” (ip, 25 mg/kg); 8.72 µM in the data set “in vivo [8]” (iv, 5 mg/kg); 0.11 µM in “in vivo [8]” (po, 25 mg/kg). For the same compound, the “bactericidal activity when used individually” value (“bactericidal activity” for short) in the data set with Mtb H37Rv strain is listed as “none of the compounds were bactericidal”. For the same compound, the “24h Observation” value is given as “Normal activity” in [9] (50 mg/kg IP, mouse 1); “Scruffy; some lethargic” in data set [9] (50 mg/kg IP, mouse 2); “Normal activity” in data set [9] (50 mg/kg IP, mouse 3); “Normal activity; grooming” in data set [9] (100 mg/kg IP, mouse 4); “Dead” in [9] (100 mg/kg IP, mouse 5); “Euthanized” in data set [9] (100 mg/kg IP, mouse 6). Further, the “24h Observation” value is given as “Dead” in data set [9] (250 mg/kg IP, mouse 7); “Dead” in data set [9] (250 mg/kg IP, mouse 8); “Euthanized” in data set [9] (250 mg/kg IP, mouse 9); “Near death; scruffy; pale color” in [9] (500 mg/kg IP, mouse 10); “Euthanized” in data set [9] (500 mg/kg IP, mouse 11); “Euthanized” in data set [9] (500 mg/kg IP, mouse 12). The “½ h Observation” value in data set [9] (50 mg/kg IP, mouse 1) is on record as “Active, grooming”; in [9] (50 mg/kg IP, mouse 2), “Active, grooming”; in data set [9] (50 mg/kg IP, mouse 3), “Active, grooming”; in [9] (100 mg/kg IP, mouse 4), “Normal activity”; in data set [9] (100 mg/kg IP, mouse 5), “Normal activity”; in data set [9] (100 mg/kg IP, mouse 6), “Normal activity”. The “½ h Observation” value in data set [9] (250 mg/kg IP, mouse 7) is “Heavy breathing”; in [9] (250 mg/kg IP, mouse 8) it was “Scruffy, heavy breathing”; in [9] (250 mg/kg IP, mouse 9), “Normal activity”; in data set [9] (500 mg/kg IP, mouse 10), “Scruffy, heavy breathing”; in data set [9] (500 mg/kg IP, mouse 11), “Scruffy, heavy breathing”; in data set [9] (500 mg/kg IP, mouse 12), “Scruffy, heavy breathing”. Besides, the “animal weights during the 24 h period post-injection” value in data set [9] (IP, all doses) is “unchanged”. Also, the “dose tolerated up to 24 h post injection” value in [9] (IP, doses of 50, 100, 250, 500 mg/kg tested) was 50 mg/kg. Moreover, the “tolerability of the dose required for concentrations above the MIC for a substantial fraction of the dosing interval” value in [9] (mice) is “not tolerated”. Moreover, in the data set on mouse macrophages, the “toxicity for mouse macrophages” value is listed as “did not detect toxicity”.
As a reminder, the Kp is the ratio of the level in a tissue or fluid to that in plasma or blood. On to `C[C@H]1c2cccc(O)c2C(=O)C2=C(O)[C@]3(O)C(=O)C(C(N)=O)=C(O)[C@@H](N(C)C)[C@@H]3[C@@H](O)[C@@H]21` [doxycycline], for which the results for the concentration ratio (Kp) at 7 days in “in vivo [10]” (200 ppm) and in “in vivo [10]” (400 ppm) were 6.1 and 3.7, respectively. For the same compound, in [11] (caused by seven daily doses of rifampicin, 8-hour period, P < 0.05), the decrease in exposure was ~ 30%. Moreover, the AUC(0-t) in data set [11] (setting [16]) came to 4780 ng·h/mL; in data set [11] (setting [17]), 3360 ng·h/mL. The “Doxycycline Cmin Mean (SD)” value in data set [11] (setting [16]) is 0.36 (0.09) g/mL; in [11] (setting [17]), 0.26 (0.02) g/mL. Also, the “Average lesion/plasma ratio (SD)” value in [12] (animal 1069, 200 ppm in chow, 44 lesions) was 3.9 (2.6); in [12] (animal 1071, 400 ppm in chow, 19 lesions), 5.4 (2.5).
Consider `CC[C@@H](CO)NCCN[C@@H](CC)CO` [ethambutol], for which, in the data set with Mtb H37Rv strain, the “change of MIC by sublethal dose of Bio-AMS” value (“change of MIC … of Bio-AMS” below) is listed as “reduced the MIC” and the “bactericidal activity” value is listed as “none of the compounds were bactericidal”. Moreover, the Mtb inoculum killed in the data set with Mtb H37Rv strain (ethambutol 12.5 µM combined with Bio-AMS 1 µM) was more than 99.9%. The “change of MIC with decreasing concentrations of biotin” value with Mtb ∆bioA was “unchanged”.
For `NNC(=O)c1ccncc1` [isoniazid], in the data set with Mtb H37Rv strain, the “change of MIC … of Bio-AMS” value is “unchanged”.
Consider `CO[C@H]1/C=C/O[C@@]2(C)Oc3c(C)c(O)c4c(O)c(c(/C=N/N5CCN(C)CC5)c(O)c4c3C2=O)NC(=O)/C(C)=C\C=C\[C@H](C)[C@H](O)[C@@H](C)[C@@H](O)[C@@H](C)[C@H](OC(C)=O)[C@@H]1C` [rifampicin], for which the AUC(0-t) in “in vivo [13]” (Rifampicin AUC[0-8] Mean (SD)) was 30700 ng·h/mL. This compound also yielded a Cmax in “in vivo [13]” (Rifampicin Cmax Mean (SD)) of 5210 ng/mL. In the data set on Mtb H37Rv strain, the “change of MIC … of Bio-AMS” value was “reduced the MIC” and the “bactericidal activity” value was “none of the compounds were bactericidal”. The Mtb inoculum killed result in the data set with Mtb H37Rv strain (rifampicin 6.5 nM combined with Bio-AMS 1 µM) was “more than 99.7%”. Moreover, the “effect of co-administration of doxycycline on exposure” value in data set [11] is “not affected”. Moreover, in [11] (setting [17]), the “Rifampicin Cmax Mean (SD)” value is listed as 5.49 (2.14) g/mL. For the same compound, in the data set with Mtb ∆bioA, the “amount accumulated in Mtb ∆bioA compared to wild-type” value is on record as “increased amounts of rifampicin” and the “change of MIC with decreasing concentrations of biotin” value is “decreased the MIC”. Also, the “killing of Mtb bioA TetON-1 in mouse lungs” value in the data set on bioA TetON-1 Mtb strain was “more than 200 fold”. In addition, in the data set on bioA TetON-1 Mtb strain (mouse), the “CFU from lungs, BioA expression reduced (no doxycycline) compared to constitutive” value is listed as “fewer CFU”.
Take `O=C(O)CCC(=O)C(=O)O` [α-KG, alpha-ketoglutarate]: at Rv3406 [1], the Km was 9.4 ± 1.2 µM and the turnover number (kcat) is 21.8 ± 1.0 min⁻¹.
What is called kcat/Km is the turnover number divided by the Michaelis constant. Turning to “Rv3406 (Mycobacterium tuberculosis H37Rv)”, in data set [14], the Michaelis constant (Km) was 0.424 ± 0.136 mM, the catalytic constant (kcat) was 0.015 ± 0.001 min⁻¹ and the catalytic efficiency (kcat/Km) stood at 0.035 ± 0.007 min⁻¹ mM⁻¹.
